Measured values taken from patent US9605026B2, “Hydrogen-bond surrogate peptides and peptidomimetics for p53 reactivation” (New York University, priority 2013, dated 2017).

How the values were obtained:
p53 = p53 transcriptional activity (Cignal p53 luciferase reporter) in UMSCC47 cells; assay type: cell-based, human; details: UMSCC47 (HPV-positive), 10 μM, 24 hours, vs control (vehicle)
Source text: (§1) FIG. 5A is an schematic illustration showing that CH1 has two distinct target sites. HIF1-α/p300 structures were used as guides to design helix mimetics that target site A and site B on the CH1 domain of p300. […] CH1iA (SEQ ID NO: 7) and CH1iB (SEQ ID NO: 8) were designed to mimic two helices from the C-terminal domain of HIF-1α. The peptides were locked into the helical conformation by the hydrogen bond surrogate method. FIG. 5C is a graph of p53 activity. UMSCC47 (left) and UMSCC74A (right) cells were co-transfected with a p53 Firefly luciferase reporter plasmid and a control Renilla luciferase plasmid. After 24 hours, cells were treated with control (vehicle), CH1iA (10 μM), or CH1iB (10 μM) for 24 hours. Firefly luciferase activity was normalized to Renilla luciferase activity to control for transfection efficiency. Data is normalized to control and presented as mean±SEM. *P<0.05, n=3. FIG. 5D is a western blot showing total and acetylated p53 levels. UMSCC47 (left) and UMSCC74A (right) cells were treated with control (vehicle), CH1iA (10 μM), or CH1iB (10 μM) for 24 hours. Cell lysates were immunoblotted with anti-p53 or anti-acetylated[K382]-p53 antibody. FIG. 5E is a pair of graphs of p300, p53, p21, miR-34a, and miR-200c expression. UMSCC47 (top panel) and UMSCC74A (bottom panel) cells were treated with control (vehicle), CH1iA (10 μM), or CH1iB (10 μM) for 24 hours. mRNA expression was determined using qPCR with validated TaqMan assays. Data is normalized to control cells and presented as mean±SEM. *P<0.01, control vs. CH1iB, n=3. FIG. 5F is a western blot showing HPV16 E6-p300 association. UMSCC47 cells were treated with control (vehicle), CH1iA (10 μM), or CH1iB (10 μM) for 24 hours. Cell lysates were extracted, immunoprecipitated with anti-p300 antibody, and immunoblotted with anti-E6 antibody. Cell lysates were immunoblotted with anti-E6 or anti-p300 antibody for input control. FIG. 5G is a set of graphs of cell proliferation. UMSCC47 (top left panel), UMSCC74A (top right panel), and IMR90 (human normal fibroblasts) (bottom panel) cells were treated with control (vehicle), CH1iA (10 μM), CH1iB (10 μM), cis-platinum (10 μM), CH1iA (10 μM) and cis-platinum (10 μM), or CH1iB (10 μM) and cis-platinum (10 μM) for 24, 48, or 72 hours. Data is normalized to Day 0 and presented as mean±SEM. *P<0.01, control vs. CH1iB or cis-platinum, **P<0.01 CH1iB or cis-platinum vs. CH1iB and cis-platinum, n=6.
FIG. 6A is a western blot showing total and acetylated p53 levels. […] UMSCC47 cells were treated with control (vehicle), CH1iB (10 μM), cis-platinum (10 μM), or CH1iB (10 μM) and cis-platinum (10 μM) for 24 hours. mRNA expression was determined using qPCR with validated TaqMan assays. […]

UMSCC47 cells = test: Cell proliferation (MTT) in UMSCC47 cells; assay type: cell-based, human
Source text: as §1
FIG. 7A is a graph of p53 transcriptional activity. UMSCC47 cells were co-transfected with a p53 Firefly luciferase reporter plasmid and a control Renilla luciferase plasmid. After 24 hours, cells were treated with control (vehicle) or CH1iB-mut (10 μM) for 24 hours. Firefly luciferase activity was normalized to Renilla luciferase activity to control for transfection efficiency. Data is presented as mean±SEM. *P<0.05, n=5. FIG. 7B is a graph of cell proliferation. UMSCC47 cells were treated with control (vehicle), CH1iB-mut (10 μM), cis-platinum (10 μM), or CH1iB-mut (10 μM) and cis-platinum (10 μM) for 24 or 48 hours. Data is normalized to Day 0 and presented as mean±SEM. *P<0.01, control or CH1iB-mut vs. cis-platinum or cis-platinum+CH1iB-mut, n=6.
Cell proliferation was assessed using the MTT reagent (Roche Molecular Biochemicals, Nutley, N.J.) to detect metabolic active cells. Absorbance was measured at 570 nm in the Spectra Max 190 ELISA reader (Molecular Devices, Sunnyvale, Calif.) after overnight incubation. […]

Substance: XELA*RAADQ-NH2 (ELXRAADQ; HBS: 4-pentenoic acid, N-allylalanine; C-terminal amide; CH1iB-MUT)
- p53 activity increase (p53): 14%
- effect on anti-proliferative efficacy of cis-platinum (combination) (UMSCC47 cells; UMSCC47, 10 μM with cis-platinum 10 μM): no effect
- cell proliferation, single-agent (UMSCC47 cells; UMSCC47, 10 μM, 24-72 hours): no effect
